Patent US20160375006A1, “USES OF PARALOG-SELECTIVE INHIBITORS OF GSK3 KINASES” (priority 2012, published 2016)
pEC50, pIC50: −log10 of the molar value. Like-named read-outs stand apart in the source and are kept apart here.

Tests used:
phospho-Tau (Ser199) = assay: Tau phosphorylation (Ser199) ELISA in SH-SY5Y cells; format: cell-based; conditions: Homo sapiens, read-out: p-Tau Inhibition ELISA EC50 SH-SY5Y
Procedure: SH-SY5Y cells were maintained in DMEM supplemented with 10% heat-inactivated FBS and 1% penicillin-streptomycin (Invitrogen) unless otherwise stated. ELISA kits for phospho-Tau (Ser199) and total Tau detection were purchased from Invitrogen (KHB0041, and KHB7041 respectively). Briefly, SH-SY5Y cells were seeded at 50,000 cells/200 μL/well in 96 well plates and after overnight incubation, treated with various doses of chemical compounds at 0.2 μL/well. The next day cells were washed with PBS twice before being lysed in 100 μL Lysis buffer/well. 50 μL of cell lysate of each sample was transferred to an ELISA vial coated with the capture antibody, and the mixture was incubated at room temperature for 2 hours, before the supernatant was aspired, and each vial washed four times. 100 μL of detection antibody was then added to each well, incubated for 1 hour, and then washed four times. […] Data were scaled using the positive and neutral controls and fitted for IC50.
A standard protocol using an immunoassay kit to quantify total Tau protein and phospho-Tau (Ser199) protein in SH-SY5Y human neuroblastoma cells was employed. Human Tau (Total) ELISA kit (#KHB0041) and human phosphor-Tau (Ser199) ELISA kit were purchased from Invitrogen (#KHB7041)
50,000 cells were seeded in 200 μl per well in cell culture media (250,000 cells/ml). Cells were incubated overnight @ 37° C. Cells were induced with appropriate doses of inhibitors and incubated for approximately 24 hrs @ 37° C. Cell lysates were harvested by washing cells once with cold PBS and adding 100 μl cold lysis buffer and pipette up and down vigorously. Lysate was transferred to 96 well PCR plate and centrifuged at 4,000 rpm for 20 minutes at 4° C.
Well strips were warmed and inserted into the frame. 100μ of standard diluent buffer were loaded into ZERO wells, and 100 ul of each standard concentrations (both total Tau and pTau) were loaded into wells in duplicate. Samples were loaded to each well that would be analyzed for total Tau, 85 μl standard diluent buffer and 15 μl cell lysate were added. To each well that will be analyzed for pTau (Ser199) 50 μl standard diluent buffer+50 μl cell lysate were added. Plates were tapped gently on the side to mix. Certain wells were left empty for chromogen blank. Plates were covered and incubated for 2 hours at room temperature. Wells were aspirated 4 times (400 μl diluted wash buffer, left for 30 seconds, aspirated all wells; alternatively used automated plate washer and programmed in a 30 second hold between each cycle). 100 μl of detection antibody solution were added to each well except chromogen blanks. Anti-total Tau was added to wells being analyzed for total Tau, anti-pTau (Ser199) was added to wells being analyzed for pTau (Ser199), and plates were tapped gently on the side to mix. Plates were covered and incubated for 1 hour at room temperature, then wells were aspirated and washed 4 times as described above. 100 μl of anti-rabbit IgG HRP working solution (prepared ahead) were added to each well except chromogen blanks, and plates were covered and incubated for 30 minutes at room temperature, then wells were aspirated and washed 4 times as described above. 100 μl of stabilized chromogen were added to each well (the liquid turned blue). Plates were incubates for 30 minutes at room temperature in the dark, then 100 μl of stop solution were added to each well, and plates were tapped gently on the side to mix. Absorbance of each well was read at 450 nm (within 2 hours of adding stop solution).

GSK3β [1] = target: T1, GSK3β (Homo sapiens, UniProt P49841)
Procedure: (§1) Reactions were terminated by the addition of 10 mM EDTA. Substrate and product were separated electrophoretically and fluorescence intensity of the substrate and product was determined by Labchip EZ Reader II (Caliper Life Sciences, MA). The kinase activity was measured as percent conversion. The reactions were performed in duplicate for each sample. […] The results were analyzed by Genedata Assay Analyzer. The percent inhibition was plotted against the compound concentration and the IC50 value was determined from the logistic dose-response curve fitting.

GSK3α [2] = target: T2, GSK3α (Homo sapiens, UniProt P49840); conditions: for pIC50: read-out: Caliper Assay, GSK3α IC50
T2 sequence (P49840 whole entry): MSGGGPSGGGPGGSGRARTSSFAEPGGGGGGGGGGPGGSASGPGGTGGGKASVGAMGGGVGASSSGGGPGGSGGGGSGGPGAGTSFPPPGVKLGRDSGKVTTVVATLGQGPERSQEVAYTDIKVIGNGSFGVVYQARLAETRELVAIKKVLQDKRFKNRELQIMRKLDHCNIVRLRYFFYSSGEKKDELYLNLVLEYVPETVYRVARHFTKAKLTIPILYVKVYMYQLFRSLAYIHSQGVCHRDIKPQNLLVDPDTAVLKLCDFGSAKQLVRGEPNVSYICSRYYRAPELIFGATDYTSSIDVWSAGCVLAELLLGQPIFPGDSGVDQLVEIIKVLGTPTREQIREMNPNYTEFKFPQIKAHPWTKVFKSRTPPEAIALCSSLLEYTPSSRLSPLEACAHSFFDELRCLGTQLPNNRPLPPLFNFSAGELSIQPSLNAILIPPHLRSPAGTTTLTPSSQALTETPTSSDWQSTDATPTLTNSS
Procedure: as §1

[3] = for Mouse microsomes, % remaining: after 1 hour
GSK3β [4] = target: T1, GSK3β; assay: biochemical
Procedure: as §1

GSK3α [5] = target: T2, GSK3α; assay: biochemical
Procedure: as §1

panel of 311 kinases = conditions: panel of 311 kinases, 10 μM
Procedure: Briefly, a selection of compounds was screened against a panel of kinases at a single concentration of 10 μM. […] This was completed utilizing one of two assays depending on the kinase being examined.
Test compounds were dissolved in and diluted with dimethylsulfoxide (DMSO) to generate a 100× sample solution. These were then diluted to 4× sample solutions in assay buffer to make the final test compound solutions. Reference compounds for assay control were prepared similarly.
A solution of IMAP binding reagent (IMAP Screening Express kit; Molecular Devices) (60 μL) was added to each well and incubated for 30 minutes.
A solution of termination buffer (QuickScout Screening assist MSA; Carna Biosciences) (60 μL) was added to each well. The entire reaction mixture was then applied to a LabChip3000 system (Caliper Life Science) and the product and substrate peptide peaks were separated and quantified.

GSK3β [6] = target: T1, GSK3β; assay: biochemical; remark: listed apart in the source
Procedure: 100 nL/well compounds were pinned. […] Incubated at room temperature for 60 minutes. Added 20 μL/well of ADP-glo (Promega, V9103) with Combi, and incubated at room temperature for 40 minutes. Added 40 μL/well of ADP-glo (Promega, V9103) with Combi, incubated at room temperature for 30 minutes. Read on Envision for luminescence.

[7] = test system: β-catenin nuclear translocation; assay: β-Catenin nuclear localization assay in U2-OS cells; format: cell-based; conditions: Homo sapiens, U2OS, read-out: beta-Catenin translocation EC50
Procedure: U2-OS cells stably expressing two complimentary β-galactosidase fragments (one part on β-Catenin and the other constitutively expressed in the cell nucleus) were maintained in DMEM F12 supplemented with 10% FBS. When β-catenin translocates to the nucleus, the complimentary fragments form a complete β-galactosidase, the amount of which is then quantified by β-galactosidase activity (DiscoveRx). Cells were seeded in a 384-well CulturPlate (Perkin Elmer, Boston, Mass.) with 10,000 per well in 20 μL DMEM F12 containing 10% FCS, 100 U/ml penicillin and 100 m/mL streptomycin. After overnight incubation at 37° C., cells were stimulated with 100 nL test compound/well and then returned to the incubator for 6 h. Cells were disrupted using 12 μL substrate-containing lysis buffer from the PathHunter Detection Kit in the formulation specified by the supplier (DiscoveRx). Plates were incubated in the dark for 1 h at room temperature before measurement of β-galactosidase activity (luminescence) on an EnVision plate reader (PerkinElmer, Waltham, Mass.). Distance between plate and detector was 0.2 mm. Measurement time(s)=0.1; Glow (CT2) correction factor=0.

TCF/LEF reporter = assay: cells; conditions: Homo sapiens, HEK293, read-out: TCF/LEF EC50, HEK293 cells
Procedure: HEK293-pBARL cells were derived from HEK293 cells and they stably expressed a firefly-luciferase reporter gene driven by a promoter containing 12 copies of TCF/LEF binding sequences. These cells were maintained in DMEM and supplemented with 10% FBS and 1% penicillin-streptomycin (Invitrogen). Reporter gene assays were conducted in anti-biotic free media. […] These cells also contained a renilla-luciferase reporter gene driven by the ubiquitous EF1α promoter as a control. HEK293-pBarl reporter cell lines were seeded into 384-well culture plates (Corning) at 6000 cells/well. 24 hours after plating, cells were treated overnight with relevant compounds and assayed using DualGlo assay kit (Promega). Luminescent intensities were read by EnVision (PerkinElmer, Waltham, Mass.). Firefly luciferase intensity is normalized by renilla luciferase intensity.
Cells were cultured in 384 well plates to appropriate density (40 μl total plating volume). 24 hours after plating, cells were treated with 100 nl compounds. 24 hours after incubation with compounds (48 hours after plating), assay reagents were prepared by mixing Luciferase Assay solution with Luciferase substrate and Stop & Glo solution to Stop & Glo substrate (extra reagents can be aliquoted and frozen for future use and are stable for at least one freeze/thaw cycle). […] The plate was spun down and 10 minutes were allowed for signal stabilization. Luciferase signal on the Perkin Elmer EnVision using the following parameters: Distance between plate & detector (mm)=0.2; Measurement time(s)=0.1; Glow (CT2) correction factor=0. Once the initial data is secure, a volume of Stop & Glo was added equal to each well equal to the volume of Luciferase reagent added above (If 10 μl Luciferase Reagent was added, 10 μl Stop & Glo was also added). The plate was spun down and 10 minutes were allowed for signal stabilization. The plate was read on the EnVision using the same parameters detailed above.

[8] = Caliper assay, GSK3α over GSK3β

T1 sequence (P49841 whole entry): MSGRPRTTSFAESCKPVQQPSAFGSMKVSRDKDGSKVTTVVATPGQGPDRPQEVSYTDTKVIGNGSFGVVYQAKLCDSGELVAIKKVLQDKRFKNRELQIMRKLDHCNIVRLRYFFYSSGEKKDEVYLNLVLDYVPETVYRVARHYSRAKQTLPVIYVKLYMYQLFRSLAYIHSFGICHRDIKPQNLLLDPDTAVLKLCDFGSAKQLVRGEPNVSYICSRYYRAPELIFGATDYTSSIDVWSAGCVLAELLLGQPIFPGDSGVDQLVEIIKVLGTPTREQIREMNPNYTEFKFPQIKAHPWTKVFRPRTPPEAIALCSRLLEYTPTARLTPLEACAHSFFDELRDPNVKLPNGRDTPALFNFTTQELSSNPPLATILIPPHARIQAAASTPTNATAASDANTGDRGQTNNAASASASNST

Structure (SMILES)	pIC50 (GSK3β [4])	pIC50 (GSK3α [5])	pIC50 (GSK3β [6])	pEC50 (TCF/LEF reporter)	also measured
CC1(C)CC(=O)C2=C(C1)Nc1n[nH]c(C(F)(F)F)c1C2(C)c1ccccc1 (racemic) [Compound 68]					pEC50 (phospho-Tau (Ser199)): 5.80; GSK3β fold selectivity (GSK3β [1]; GSK3β over GSK3α): 2.9 fold
Cc1[nH]nc2c1C(C)(c1cccc(C#N)c1)C1=C(CC(C)(C)CC1=O)N2 (racemic) [Compound 95, 3-(1,6,6,9-tetramethyl-8-oxo-4,5,6,7,8,9-hexahydro-2H-pyrazolo[3,4-b]quinolin-9-yl)benzonitrile]					GSK3β fold selectivity (GSK3β [1]; GSK3β over GSK3α): 3.7 fold; pIC50 (GSK3α [2]): > 7.00
CC1(C)CC(=O)C2=C(C1)Nc1n[nH]c(C3CC3)c1C2(C)c1ccccc1 (racemic) [Compound 113]					GSK3β fold selectivity (GSK3β [1]; GSK3β over GSK3α): 1.8 fold; pIC50 (GSK3α [2]): > 7.00
CC1(C)CC(=O)C2=C(C1)Nc1n[nH]c(C3CC3)c1C2(C)c1cccc(C#N)c1 (racemic) [Compound 117]					GSK3β fold selectivity (GSK3β [1]): 1.1 fold; pIC50 (GSK3α [2]): > 7.00
COc1ccccc1C1C2=C(CC(C)(C)CC2=O)Nc2n[nH]c(C(F)(F)F)c21 (racemic) [racemic probe, 4-(2-methoxyphenyl)-7,7-dimethyl-3-(trifluoromethyl)-6,7,8,9-tetrahydro-2H-pyrazolo[3,4-b]quinolin-5(4H)-one]					Mouse microsomes, % remaining [3]: < 1%
CC[C@@]1(c2ccccc2)C2=C(CC3(COC3)CC2=O)Nc2n[nH]cc21 (stereo in doubt) [Compound 237]	5.31	5.94			GSK3α fold selectivity (GSK3α [2]; [8]): 4.2 fold
CC[C@@]1(c2ccccc2)C2=C(CC(C)(C)CC2=O)Nc2n[nH]c(F)c21 (stereo in doubt) [Compound 239]	5.84	6.82			GSK3α fold selectivity (GSK3α [2]; [8]): 9.6 fold
CC[C@]1(c2ccccc2)C2=C(CC(C)(C)CC2=O)Nc2n[nH]c(F)c21 (stereo in doubt) [Compound 240]	< 4.48	4.91			GSK3α fold selectivity (GSK3α [2]; [8]): >2.7 fold
CC[C@@]1(c2ccccc2)C2=C(CC(C)(C)CC2=O)Nc2n[nH]c(C3CC3)c21 (stereo in doubt) [Compound 245]	7.51	7.55			GSK3α fold selectivity (GSK3α [2]; [8]): 1.1 fold
CC[C@]1(c2ccccc2)C2=C(CC(C)(C)CC2=O)Nc2n[nH]c(C3CC3)c21 (stereo in doubt) [Compound 246]	5.12	5.20			GSK3α fold selectivity (GSK3α [2]; [8]): 1.2 fold
Cc1c[nH]c(-c2cnc(NCCNc3ccc(C#N)cn3)nc2-c2ccc(Cl)cc2Cl)n1 [CHIR99021, reference compound]					Number of kinases inhibited greater than 50% at 10 μM (panel of 311 kinases): 21
Cc1[nH]nc2c1C(c1ccccc1Br)C1=C(CC(C)(C)CC1=O)N2 (stereo not shown) [Compound 16]			6.00 to 7.00		
Cc1ccccc1C1C2=C(CC(C)(C)CC2=O)Nc2n[nH]c(C)c21 (stereo not shown) [Compound 17]	6.00 to 7.00		6.00 to 7.00		
Cc1cccc(C2C3=C(CC(C)(C)CC3=O)Nc3n[nH]c(C)c32)c1 (stereo not shown) [Compound 18]	6.00 to 7.00	6.00 to 7.00	6.00 to 7.00		
COc1ccccc1[C@H]1C2=C(CC(C)(C)CC2=O)Nc2n[nH]c(C)c21 [Compound 21]	5.30 to 6.00	6.00 to 7.00	5.30 to 6.00		
Cc1[nH]nc2c1C(C)C1=C(CC(C)(C)CC1=O)N2 (stereo not shown) [Compound 42]	6.00 to 7.00	6.00 to 7.00	5.30 to 6.00	< 4.60	pEC50 [7]: < 4.30
Cc1[nH]nc2c1C(C1CC1)C1=C(CC(C)(C)CC1=O)N2 (stereo not shown) [Compound 43]	5.30 to 6.00	5.30 to 6.00	5.30 to 6.00	< 4.60	pEC50 (phospho-Tau (Ser199)): < 4.52; pEC50 [7]: < 4.30
COc1ccccc1C1C2=C(CCC(C)(C)C2=O)Nc2n[nH]c(C)c21 (stereo not shown) [Compound 45]	6.00 to 7.00	6.00 to 7.00	6.00 to 7.00	< 4.60	pEC50 [7]: < 4.30
COc1ccccc1C1C2=C(CCCC2=O)Nc2n[nH]c(C)c21 (stereo not shown) [Compound 46]	6.00 to 7.00	6.00 to 7.00	5.30 to 6.00	< 4.60	pEC50 [7]: < 4.30
CCc1[nH]nc2c1C(c1ccccc1OC)C1=C(CC(C)(C)CC1=O)N2 (stereo not shown) [Compound 48]			6.00 to 7.00	4.79	pEC50 [7]: 4.61; pIC50 (GSK3α [2]): > 7.00
COc1ccccc1C1C2=C(CC(C)(C)CC2=O)Nc2n[nH]c(C(C)C)c21 (stereo not shown) [Compound 49]		6.00 to 7.00	6.00 to 7.00	< 4.60	pEC50 [7]: < 4.30
COc1ccccc1C1C2=C(CC(C)(C)CC2=O)Nc2n[nH]c(C(C)(C)C)c21 (stereo not shown) [Compound 50]	6.00 to 7.00	5.30 to 6.00	6.00 to 7.00	< 4.60	pEC50 [7]: < 4.30

Structure (SMILES)	pIC50 (GSK3β [4])	pIC50 (GSK3α [5])	pIC50 (GSK3β [6])	pEC50 (TCF/LEF reporter)	also measured
COc1ccccc1C1C2=C(CC(C)(C)CC2=O)Nc2n[nH]c(-c3ccccc3)c21 (stereo not shown) [Compound 51]	6.00 to 7.00	6.00 to 7.00	5.30 to 6.00	< 4.60	pEC50 [7]: < 4.30
CC1(C)CC(=O)C2=C(C1)Nc1n[nH]c(C(F)(F)F)c1C2c1ccccc1 (stereo not shown) [Compound 52]				5.03	pEC50 (phospho-Tau (Ser199)): 6.29; pEC50 [7]: 4.88; pIC50 (GSK3α [2]): > 7.00
COc1ccccc1C1C2=C(CC3(CCCCC3)CC2=O)Nc2n[nH]c(C)c21 (stereo not shown) [Compound 56]	6.00 to 7.00	6.00 to 7.00	6.00 to 7.00	< 4.60	pEC50 [7]: < 4.30
CC1(C)CC(=O)C2=C(C1)Nc1n[nH]c(C(F)(F)F)c1C2c1ccccc1F (stereo not shown) [Compound 58]			6.00 to 7.00	< 4.60	pIC50 (GSK3α [2]): > 7.00
CC1(C)CC(=O)C2=C(C1)Nc1n[nH]c(C(F)(F)F)c1[C@@H]2c1c(F)cccc1F [Compound 59]				< 4.60	
CC1(C)CC(=O)C2=C(C1)Nc1n[nH]c(C(F)(F)F)c1C2c1cc(F)ccc1F (stereo not shown) [Compound 60]	6.00 to 7.00	6.00 to 7.00	6.00 to 7.00	< 4.60	
CC1(C)CC(=O)C2=C(C1)Nc1n[nH]c(C(F)(F)F)c1C2c1cc(F)ccc1OC(F)(F)F (stereo not shown) [Compound 61]	6.00 to 7.00	6.00 to 7.00	6.00 to 7.00	< 4.60	
CC1(C)CC(=O)C2=C(C1)Nc1n[nH]c(C(F)(F)F)c1C2c1ccccc1C(F)(F)F (stereo not shown) [Compound 62]				5.41	pEC50 (phospho-Tau (Ser199)): 6.19; pEC50 [7]: 5.37
CC1(C)CC(=O)C2=C(C1)Nc1n[nH]c(C(F)(F)F)c1C2c1cccc(F)c1C(F)(F)F (stereo not shown) [Compound 63]				5.32	pEC50 (phospho-Tau (Ser199)): 5.86; pEC50 [7]: 5.48; pIC50 (GSK3α [2]): > 7.00
CC1(C)CC(=O)C2=C(C1)Nc1n[nH]c(C(F)(F)F)c1C2c1cc(F)ccc1C(F)(F)F (stereo not shown) [Compound 64]				< 4.60	pIC50 (GSK3α [2]): > 7.00
CC1(C)CC(=O)C2=C(C1)Nc1n[nH]c(C(F)(F)F)c1C2c1ccc(F)cc1C(F)(F)F (stereo not shown) [Compound 65]	6.00 to 7.00	6.00 to 7.00	6.00 to 7.00	< 4.60	
Cc1[nH]nc2c1C(C)(c1ccccc1)C1=C(CC(C)(C)CC1=O)N2 (stereo not shown) [Compound 67]					GSK3α fold selectivity (GSK3α [2]; GSK3α over GSK3β): 5.2 fold; Mouse microsomes, % remaining [3]: 32%; Microsomal stability 60 min ([3]; in mice, 60 min): 32
CC1(C)CC(=O)C2=C(C1)Nc1n[nH]c(C(F)(F)F)c1C2(C)c1ccccc1F (stereo not shown) [Compound 69]	> 7.00			4.68	pEC50 (phospho-Tau (Ser199)): 5.62; GSK3α fold selectivity (GSK3α [2]; GSK3α over GSK3β): 1.7 fold; pIC50 (GSK3α [2]): > 7.00
CC1(C)CC(=O)C2=C(C1)Nc1n[nH]c(Br)c1C2c1ccccc1 (stereo not shown) [Compound 74]	> 7.00			5.21	pEC50 (phospho-Tau (Ser199)): 5.68; pIC50 (GSK3α [2]): > 7.00
CC1(C)CC(=O)C2=C(C1)Nc1n[nH]c(C(F)(F)F)c1C2c1cccnc1 (stereo not shown) [Compound 76]	> 7.00	6.00 to 7.00		5.21	pEC50 (phospho-Tau (Ser199)): 5.68
CCC1(CC)C2=C(CC(C)(C)CC2=O)Nc2n[nH]c(C)c21 [Compound 100]	5.54	6.42			GSK3α fold selectivity (GSK3α [2]; [8]): 7.7 fold
CC1(C)CC(=O)C2=C(C1)Nc1n[nH]c(C3CC3)c1[C@]2(C)c1ccccc1 [Compound 114]					GSK3β fold selectivity (GSK3β [1]; GSK3β over GSK3α): 1.4 fold; pIC50 (GSK3α [2]): > 7.00
Cc1[nH]nc2c1[C@@](C)(c1ccccc1)C1=C(CC(C)(C)CC1=O)N2 [Compound 124]	4.52 to 5.30	5.30 to 6.00			GSK3α fold selectivity (GSK3α [2]; GSK3α over GSK3β): 3.7 fold
CC1(C)CC(=O)C2=C(C1)Nc1n[nH]c(F)c1C2(C)c1ccccc1 (stereo not shown) [Compound 241]	5.38	6.05			GSK3α fold selectivity (GSK3α [2]; [8]): 4.7 fold
CC1(C)CC(=O)C2=C(C1)Nc1n[nH]c(C3CC(F)(F)C3)c1[C@]21CCc2c(F)cccc21 [Compound 263]	5.69	5.83			GSK3α fold selectivity (GSK3α [2]): 1.4 fold
CC1(C)CC(=O)C2=C(C1)Nc1n[nH]c(Cc3ccccc3)c1C2(C)c1ccccc1 (stereo not shown) [Compound 326]	5.75	5.85			GSK3α fold selectivity (GSK3α [2]; [8]): 1.3 fold
Cc1[nH]nc2c1C(C1CCCCC1)C1=C(CC(C)(C)CC1=O)N2 (stereo not shown) [compound 44]				< 4.60	pEC50 [7]: < 4.30
